Molecules are shown by their SMILES. Entries after “also recorded” stand apart in the source; their conditions may differ.

The record followed here is patent publication US9403756B2, “N-phenyl anthranilic acid derivatives and uses thereof” (Ramot at Tel-Aviv University Ltd., priority 2007, dated 2016).

Holding throughout (format): cell-based
The target of one assay is T1, Kv 7.4 (Homo sapiens, UniProt P56696).
T1 construct: expressed in transfected cells; host or cells: Xenopus oocytes
As to the kind of experiment: Kv channel selectivity, Xenopus oocytes: Kv7.4. As to conditions: −30 mV. The procedure: Voltage-clamp measurements in Xenopus oocytes were performed as previously described.
The selectivity of NH29 on other relevant Kv channels expressed in Xenopus oocytes was also studied, and the results are summarized in Table 3 below. The specificity of NH29 at 25 μM and 50 μM towards various Kv channels was tested in Xenopus oocytes, except for Kv1.2 which was checked in transfected CHO cells. The current amplitude of the various Kv channels was tested at the indicated voltages and the effect of the drugs was expressed as fold of the control amplitude measured under the same conditions in the absence of the drug. The data in Table 3 are expressed as mean±SEM of 5-7 separate experiments.

The next assay deals with T2, Kv7.3 mutant A315T (Homo sapiens, UniProt O43525, A315T).
T2 construct: expressed in transfected cells
T2 sequence (O43525 whole entry A315T): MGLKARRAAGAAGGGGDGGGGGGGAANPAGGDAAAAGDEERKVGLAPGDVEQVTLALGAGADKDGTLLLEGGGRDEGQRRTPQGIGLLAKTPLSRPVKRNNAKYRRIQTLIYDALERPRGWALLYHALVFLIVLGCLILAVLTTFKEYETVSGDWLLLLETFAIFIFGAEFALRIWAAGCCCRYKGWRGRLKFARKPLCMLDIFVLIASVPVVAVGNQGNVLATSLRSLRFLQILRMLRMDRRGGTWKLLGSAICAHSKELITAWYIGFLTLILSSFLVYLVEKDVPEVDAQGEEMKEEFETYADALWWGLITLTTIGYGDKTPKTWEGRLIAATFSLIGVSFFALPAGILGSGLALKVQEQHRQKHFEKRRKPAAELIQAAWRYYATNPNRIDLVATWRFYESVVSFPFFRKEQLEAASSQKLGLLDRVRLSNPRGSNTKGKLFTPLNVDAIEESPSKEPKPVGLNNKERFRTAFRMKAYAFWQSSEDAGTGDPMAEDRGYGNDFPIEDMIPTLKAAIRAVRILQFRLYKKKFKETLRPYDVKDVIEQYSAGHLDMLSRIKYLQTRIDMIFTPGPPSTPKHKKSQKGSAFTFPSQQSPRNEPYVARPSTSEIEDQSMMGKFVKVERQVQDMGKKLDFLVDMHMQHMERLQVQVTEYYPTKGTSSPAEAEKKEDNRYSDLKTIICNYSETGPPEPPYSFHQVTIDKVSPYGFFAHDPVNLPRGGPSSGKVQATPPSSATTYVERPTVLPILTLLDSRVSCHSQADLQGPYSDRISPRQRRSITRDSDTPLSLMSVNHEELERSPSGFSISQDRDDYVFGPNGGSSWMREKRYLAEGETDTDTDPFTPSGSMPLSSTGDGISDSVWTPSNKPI
As to the kind of experiment: Activation of Kv7.3 mutant A315T. From the text:
Among the Kv7 channel family, NH29 appeared to act as an opener of Kv7.2 but not of Kv7.1 and Kv7.4.

For the next assay, the target named is T3, TRPV6 channel (Homo sapiens, UniProt Q9H1D0).
T3 construct: expressed in transfected cells; host or cells: CHO cells
T3 sequence (Q9H1D0 whole entry): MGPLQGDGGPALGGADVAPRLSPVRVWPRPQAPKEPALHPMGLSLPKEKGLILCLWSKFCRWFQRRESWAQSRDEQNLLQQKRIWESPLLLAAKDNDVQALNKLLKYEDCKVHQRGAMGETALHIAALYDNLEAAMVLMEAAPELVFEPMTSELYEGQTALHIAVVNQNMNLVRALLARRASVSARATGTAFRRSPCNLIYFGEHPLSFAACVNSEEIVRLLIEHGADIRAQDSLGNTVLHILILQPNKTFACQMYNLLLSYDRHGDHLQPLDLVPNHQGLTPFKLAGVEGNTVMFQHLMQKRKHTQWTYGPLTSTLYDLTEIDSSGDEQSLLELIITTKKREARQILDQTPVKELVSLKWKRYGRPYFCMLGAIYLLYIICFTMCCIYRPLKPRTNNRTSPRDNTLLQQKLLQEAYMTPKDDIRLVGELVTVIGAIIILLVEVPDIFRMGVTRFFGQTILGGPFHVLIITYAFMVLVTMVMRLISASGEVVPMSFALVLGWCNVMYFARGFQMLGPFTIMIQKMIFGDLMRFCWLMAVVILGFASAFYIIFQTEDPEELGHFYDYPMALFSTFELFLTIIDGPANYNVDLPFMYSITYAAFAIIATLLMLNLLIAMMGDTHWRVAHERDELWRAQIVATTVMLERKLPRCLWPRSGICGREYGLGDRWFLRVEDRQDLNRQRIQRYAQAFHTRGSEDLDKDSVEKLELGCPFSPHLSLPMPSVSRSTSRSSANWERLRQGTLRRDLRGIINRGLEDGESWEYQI
As to the kind of experiment: TRPV6 currents in transfected CHO cells. As to conditions: 25 μM NH29; −80 mV to 100 mV. The procedure: FIGS. 15A-C present the lack of effect of NH29, an exemplary compound according to some embodiments of the present invention, on TRPV6 channel. FIG. 15A presents superimposed representative traces recorded from a CHO cell transfected with TRPV6 before (marked control) during (marked 165s) and after (marked wash) external application of 25 μM NH29, and wherein the membrane potential was stepped from −80 mV to 100 mV for 40 seconds pulse duration (protocol shown in upper panel). The current amplitude was measured at peak current points (marked a 1 at −80 mV and a2 at +100 mV) and plotted as a function of recording time (FIGS. 15B and 15C respectively).
Chinese hamster ovary (CHO) cells were grown in Dulbecco's modified Eagle's medium (DMEM) supplemented with 2 mM glutamine, 10% fetal calf serum and antibiotics. Briefly, 40,000 cells seeded on poly-D-lysine-coated glass coverslips (13 mm diameter) in a 24-multiwell plate were transfected with pIRES-CD8 (0.5 μg) as a marker for transfection, and with Kv7.2 (0.5 μg) and Kv7.3 (0.5 μg) or TRPV1 […] or TRPV6 […].
For electrophysiology, transfected cells were visualized approximately 40 hours following transfection, using anti-CD8 antibody-coated beads. Transfection was performed using Fugene 6 (Roche, Indianapolis Ind., USA) according to the manufacturer's protocol. […]

The target of a further assay is T4, KCNQ2 mutant R207W (Homo sapiens, UniProt O43526, R207W).
T4 construct: expressed in transfected cells; host or cells: CHO cells
T4 sequence (O43526 whole entry R207W): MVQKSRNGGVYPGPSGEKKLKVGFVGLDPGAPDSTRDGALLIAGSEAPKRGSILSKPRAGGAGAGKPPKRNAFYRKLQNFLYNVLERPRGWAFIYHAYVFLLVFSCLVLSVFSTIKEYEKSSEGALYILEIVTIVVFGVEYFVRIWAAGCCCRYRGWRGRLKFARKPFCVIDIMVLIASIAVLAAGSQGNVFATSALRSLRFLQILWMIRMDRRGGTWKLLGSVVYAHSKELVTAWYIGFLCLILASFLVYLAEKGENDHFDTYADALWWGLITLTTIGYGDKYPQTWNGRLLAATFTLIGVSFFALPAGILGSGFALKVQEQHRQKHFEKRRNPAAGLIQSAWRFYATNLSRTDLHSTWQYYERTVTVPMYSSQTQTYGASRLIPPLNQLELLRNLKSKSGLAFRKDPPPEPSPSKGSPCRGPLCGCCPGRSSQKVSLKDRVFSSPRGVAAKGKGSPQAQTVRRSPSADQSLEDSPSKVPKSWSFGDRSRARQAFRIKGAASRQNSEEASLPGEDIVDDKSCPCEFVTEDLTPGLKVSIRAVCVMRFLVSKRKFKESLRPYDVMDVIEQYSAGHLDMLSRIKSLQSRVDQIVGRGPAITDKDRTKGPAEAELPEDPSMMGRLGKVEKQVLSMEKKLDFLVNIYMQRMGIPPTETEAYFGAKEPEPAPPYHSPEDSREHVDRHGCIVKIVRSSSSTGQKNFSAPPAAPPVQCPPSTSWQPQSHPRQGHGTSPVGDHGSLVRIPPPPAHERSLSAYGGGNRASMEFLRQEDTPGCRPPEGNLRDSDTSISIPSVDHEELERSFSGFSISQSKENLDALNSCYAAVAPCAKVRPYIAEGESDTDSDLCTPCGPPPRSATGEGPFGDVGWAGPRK
An excerpt: FIGS. 10A-D present the potentiating effect of NH29, an exemplary channel opener compound according to embodiments of the present invention, on wild type KCNQ2 (FIGS. 10A and 10B) and R207W mutant (FIGS. 10C and 10D) channels, as expressed in activation curve measurements, showing that NH29 left-shifts the activation curve (ΔV50) by −15.5 mV and −5.5 mV in the case of the wild-type and the mutant, respectively, and showing that NH29 enhances the current of wild-type and the mutant by about 3.4-fold (at −40 mV) and 1.5-fold (at −20 mV), respectively.
FIGS. 11A-F present the potentiating effect of NH29, an exemplary channel opener compound according to embodiments of the present invention, and Retigabine, on KCNQ2 mutants R207W and W236L mutant. Shown are representative traces recorded from CHO cell transfected with the KCNQ2 mutant R207W 0, 1 and 4-4.5 minutes after external application of 25 μM of NH29 and wherein the membrane potential was stepped from −90 mV holding potential to −20 mV for 1.5 seconds pulse duration (FIG. 11A), or 0, 1 and 4 minutes after external application of 25 μM of Retigabine wherein the membrane potential was stepped from −90 mV holding potential to −40 mV for 1.5 seconds pulse duration (FIG. 11B). FIGS. 11C and 11D show representative traces recorded from CHO cells transfected with the KCNQ2 mutant W236L 0, 1 and 6 minutes after external application of 25 μM of NH29 (FIG. 11C) or 0 and 5 minutes after external application of 10 μM of Retigabine (FIG. 11D) and wherein the membrane potential was stepped from −90 mV holding potential to −40 mV for 1.5 seconds pulse duration. FIG. 11E presents superimposed traces, showing the effects of Retigabine (RTG) and NH29 on the channel activity of KCNQ2 mutant W236L as measured at −40 mV; and FIG. 11F presents a bar diagram comparing the potentiating effect of NH29 and Retigabine on native KCNQ2 and KCNQ2 mutants, wherein the opener effect is expressed as percent of the control current in the absence of the opener.
Voltage-clamp recordings in CHO cells were performed, using the whole-cell configuration of the patch-clamp technique. Signals were amplified using an Axopatch 200B patch-clamp amplifier (Molecular Devices, Sunnyvale, Calif.), sampled at 2 kHz and filtered at 800 Hz via a 4-pole Bessel low pass filter. Data were acquired using pClamp 9.2 software (Molecular Devices) and an IBM compatible Pentium IV computer in conjunction with a DigiData 1322A interface (Molecular Devices). The patch pipettes were pulled from borosilicate glass (Warner Instrument Corp, USA) with a resistance of 2-5 MΩ. For K^+ current recordings in CHO cells, the intracellular pipette solution contained (in mM): 130 KCl, 1 MgCl2, 5 K2ATP, 5 EGTA, 10 HEPES, adjusted with KOH to pH 7.4 (290 mOsm). The extracellular solution contained (in mM): 140 NaCl, 4 KCl, 1.8 CaCl2, 1.2 MgCl2, 11 glucose, 5.5 HEPES, adjusted with NaOH to pH 7.4 (310 mOsm). Series resistances (3-13 MΩ) were compensated (75-90%) and periodically monitored.

For another assay, the target named is T5, KCNQ2 mutant Y118S (Homo sapiens, UniProt O43526, Y118S).
T5 construct: expressed in transfected cells
T5 sequence (O43526 whole entry Y118S): as the sequence (O43526 whole entry R207W) above, with Y118S, W207R counted along it
As to the kind of experiment: KCNQ2 mutant Y118S. As to conditions: 25 μM NH29. The procedure:
FIG. 8 presents a bar-graph comparing the potentiating effect of 25 μM of Compound NH29 on various KCNQ subunits and mutants, wherein the opener effect is expressed as percent of the control current in the absence of the opener;

T1 sequence (P56696 whole entry): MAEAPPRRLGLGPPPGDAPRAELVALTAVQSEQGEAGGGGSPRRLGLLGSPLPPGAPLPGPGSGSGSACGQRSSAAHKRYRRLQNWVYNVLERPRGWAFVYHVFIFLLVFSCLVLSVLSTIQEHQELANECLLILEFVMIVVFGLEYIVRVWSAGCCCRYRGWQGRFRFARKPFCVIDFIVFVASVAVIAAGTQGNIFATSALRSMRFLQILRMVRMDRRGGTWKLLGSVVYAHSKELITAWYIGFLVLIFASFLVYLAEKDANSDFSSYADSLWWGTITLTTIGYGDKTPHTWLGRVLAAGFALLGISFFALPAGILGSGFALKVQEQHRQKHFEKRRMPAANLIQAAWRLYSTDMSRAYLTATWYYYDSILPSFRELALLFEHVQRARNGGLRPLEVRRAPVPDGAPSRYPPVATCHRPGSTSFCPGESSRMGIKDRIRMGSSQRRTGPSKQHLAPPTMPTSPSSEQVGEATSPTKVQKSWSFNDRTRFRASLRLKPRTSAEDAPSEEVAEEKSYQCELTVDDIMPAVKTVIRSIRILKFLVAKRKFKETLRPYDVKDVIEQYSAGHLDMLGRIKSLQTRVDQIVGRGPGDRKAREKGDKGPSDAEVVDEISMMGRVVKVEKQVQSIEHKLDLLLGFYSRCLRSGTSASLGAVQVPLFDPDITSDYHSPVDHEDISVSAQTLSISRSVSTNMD

For `O=C(Cc1cc([N+](=O)[O-])cc([N+](=O)[O-])c1Nc1c(Cl)cc([N+](=O)[O-])cc1Cl)NCCO` [NH29], the Fold current amplitude was 1.0 ± 0.12 fold on Kv 7.4 (25 μM) and 0.9 ± 0.04 fold at Kv 7.4 (50 μM). In addition, the “activation of Kv7.3 mutant A315T” value at Kv7.3 mutant A315T is “could also activate Kv7.3”. Besides, on TRPV6 channel, the “modulation of TRPV6 current” value was “lack of modulation; also recorded: no similar inhibition of TRPV6 was observed”. Also, the “effect of point mutation R207W on the opener effect” value at KCNQ2 mutant R207W (25 μM) was “completely abolished the opener effect”. Moreover, the “fold enhancement of current” value on KCNQ2 mutant R207W (25 μM NH29, at −20 mV) is recorded as roughly 1.5 fold. In addition, the “left-shift of the activation curve (ΔV50)” value at KCNQ2 mutant R207W (NH29) is given as −5.5 mV. In addition, the “fold potentiation of current” value on KCNQ2 mutant Y118S is recorded as 2.1 fold.
